In patent US5393785A, “Therapeutic antiestrogens” (Endorecherche, Inc., priority 1992, dated 1995):

Experiments:
[1] = tested on: rat uterine cytosol estrogen receptor; assay: competition binding on rat uterine cytosol estrogen receptor with [3H]estradiol; conditions: incubation at 25° C. for 3 hours; [3H]estradiol competition
Method: FIG. 1 illustrates a competition binding assay of the affinity of estradiol, diethylstilbestrol, ICI 164384 (Wakeling A. E. and Bowler J., 1987; J. Endocr. 112, R7-R10) and EM-142 (an antiestrogen in accordance with the invention synthesized in example 1, herein) for the rat uterine cytosol receptor (Asselin et al., 1978; J. Steroid Biochem. 9:1079-1082).
EM-142 from example 1 was tested by competition binding on the rat uterine cytosol estrogen receptor with [^3 H]estradiol according to Asselin et al. (1976) procedure. […] (Incubation was performed at 25° C. for 3 hours).

[2] = tested on: estradiol-induced stimulation of uterine weight; assay: inhibition of estradiol-induced stimulation of uterine weight in ovariectomized mice; assay type: in vivo, Balb/c mice
Method: FIG. 2 illustrates the effect of the indicated doses of EM-142 injected twice daily (b.i.d.) on uterine weight (mg) in adult female ovariectomized Balb/C mice treated for 4.5 days in the presence or absence of simultaneous treatment with 17β-estradiot (0.01 μg, b.i.d.). […] EM-142, and/or estradiol contained in ethanol were injected subcutaneously in the appropriate groups in a solution of 0.9% (w/v) sodium chloride and 1% (w/v) gelatin at different concentrations in 0.2 ml for EM-142, twice daily, starting on the day of ovariectomy for a total of 9 injections. Estradiol was injected at the dose of 0.01 μg in 0.2 ml, twice daily, starting on the morning after ovariectomy for a total of 8 injections. After sacrifice, the uteri were rapidly removed, freed from fat and connective tissue and weighted. Results shown in FIG. 2 are the means ± SEM of groups of 9-10 mice.

[3] = tested on: advanced breast cancer; conditions: cited from earlier work

Row | binding potency relative to 17β-estradiol (times less potent) [1] [times] | SMILES | binding potency compared with ICI 164384 [1] | effect on E2-induced uterine growth at 0.3 μg ([2]; 0.3 μg s.c. twice daily, 9 injections, estradiol 0.01 μg b.i.d.) | effect on estrogenic action at 20 μg ([2]; 20 μg s.c. twice daily, 9 injections, estradiol 0.01 μg b.i.d.) | estrogenic (agonistic) effect on uterine weight ([2]; EM-142 in absence of estradiol, s.c. twice daily) | dose giving half-maximal inhibitory effect on E2-induced uterine growth ([2]; s.c. twice daily, 9 injections, estradiol 0.01 μg b.i.d.) | women patients treated with remission of advanced breast cancer [3]
1 | 3 | CCCCN(C)C(=O)CCCCCCCCCCC(=C(CC)c1ccc(O)cc1)c1ccc(O)cc1 [EM-142, N-butyl,N-methyl-12,13-Bis (4-hydroxyphenyl)-12-pentadecenoic amide] | more potent than the antiestrogen ICI 164384 | significant inhibitory effect | complete reversal of estrogenic action | no estrogenic effect on uterine weight | approximately 3 μg | –
2 | – | CC/C(=C(\c1ccccc1)c1ccc(OCCN(C)C)cc1)c1ccccc1 [Tamoxifen] | – | – | – | – | – | about 30%
